Results: PubChem BioAssay (NCI)
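Cultured in 96-well plates, cells were exposed to test compound for 48 hours across five concentrations. GI50: concentration for 50% inhibition of growth. TGI is the concentration that stops growth completely.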

What was measured:
Experiment in all cases: NCI tumour cell line growth inhibition, 48 h
786-0 renal = tested on: 786-0 renal
A498 renal = tested on: A498 renal
A549 NSCLC = tested on: A549 NSCLC
ACHN renal = tested on: ACHN renal
BT-549 breast = tested on: BT-549 breast
CAKI-1 renal = tested on: CAKI-1 renal
CCRF-CEM leukemia = tested on: CCRF-CEM leukemia
COLO 205 colon = tested on: COLO 205 colon
DU-145 prostate = tested on: DU-145 prostate
EKVX NSCLC = tested on: EKVX NSCLC
HCC-2998 colon = tested on: HCC-2998 colon
HCT-116 colon = tested on: HCT-116 colon
HCT-15 colon = tested on: HCT-15 colon
HL-60(TB) leukemia = tested on: HL-60(TB) leukemia
HOP-62 NSCLC = tested on: HOP-62 NSCLC
HOP-92 NSCLC = tested on: HOP-92 NSCLC
HS 578T breast = tested on: HS 578T breast
HT29 colon = tested on: HT29 colon
IGROV1 ovarian = tested on: IGROV1 ovarian
K-562 leukemia = tested on: K-562 leukemia
KM12 colon = tested on: KM12 colon
LOX IMVI melanoma = tested on: LOX IMVI melanoma
M14 melanoma = tested on: M14 melanoma
MALME-3M melanoma = tested on: MALME-3M melanoma
MDA-MB-231 breast = tested on: MDA-MB-231 breast
MDA-MB-435 = tested on: MDA-MB-435
MOLT-4 leukemia = tested on: MOLT-4 leukemia
NCI-H226 lung = tested on: NCI-H226 lung
NCI-H23 lung = tested on: NCI-H23 lung
NCI-H460 lung = tested on: NCI-H460 lung
NCI-H522 lung = tested on: NCI-H522 lung
NCI/ADR-RES ovarian = tested on: NCI/ADR-RES ovarian
OVCAR-3 ovarian = tested on: OVCAR-3 ovarian
OVCAR-4 ovarian = tested on: OVCAR-4 ovarian
OVCAR-5 ovarian = tested on: OVCAR-5 ovarian
OVCAR-8 ovarian = tested on: OVCAR-8 ovarian
PC-3 prostate = tested on: PC-3 prostate
RPMI-8226 leukemia = tested on: RPMI-8226 leukemia
RXF 393 renal = tested on: RXF 393 renal
SF-268 CNS = tested on: SF-268 CNS
SF-295 CNS = tested on: SF-295 CNS
SF-539 CNS = tested on: SF-539 CNS
SK-MEL-2 melanoma = tested on: SK-MEL-2 melanoma
SK-MEL-28 melanoma = tested on: SK-MEL-28 melanoma
SK-MEL-5 melanoma = tested on: SK-MEL-5 melanoma
SK-OV-3 ovarian = tested on: SK-OV-3 ovarian
SN12C renal = tested on: SN12C renal
SNB-19 CNS = tested on: SNB-19 CNS
SNB-75 CNS = tested on: SNB-75 CNS
SR leukemia = tested on: SR leukemia
SW-620 colon = tested on: SW-620 colon
T-47D breast = tested on: T-47D breast
TK-10 renal = tested on: TK-10 renal
U251 CNS = tested on: U251 CNS
UACC-257 melanoma = tested on: UACC-257 melanoma
UACC-62 melanoma = tested on: UACC-62 melanoma
UO-31 renal = tested on: UO-31 renal

Work on `O=C1/C(=C/c2cccc([N+](=O)[O-])c2)COc2ccc(O)cc21` yielded a GI50 (786-0 renal) of 1850 nM, a TGI (786-0 renal) of 3830 nM and a GI50 (A498 renal) of 3350 nM. For the same molecule, the TGI (A498 renal) was 13400 nM, the GI50 (A549 NSCLC) was 4660 nM and the TGI (A549 NSCLC) was 16800 nM. It also gave a GI50 (ACHN renal) of 1750 nM, a TGI (ACHN renal) of 3210 nM and a GI50 (BT-549 breast) of 2190 nM. It also gave a TGI (BT-549 breast) of 4460 nM, a GI50 (CAKI-1 renal) of 1780 nM and a TGI (CAKI-1 renal) of 3580 nM. For the same molecule, the GI50 (CCRF-CEM leukemia) was 408 nM, the TGI (CCRF-CEM leukemia) was 1850 nM and the GI50 (COLO 205 colon) was 1580 nM. For the same molecule, the TGI (COLO 205 colon) was 3270 nM, the GI50 (DU-145 prostate) was 2000 nM and the TGI (DU-145 prostate) was 4260 nM. For the same molecule, the GI50 (EKVX NSCLC) was 3860 nM, the TGI (EKVX NSCLC) was 13700 nM and the GI50 (HCC-2998 colon) was 1750 nM. It also gave a TGI (HCC-2998 colon) of 3210 nM, a GI50 (HCT-116 colon) of 1190 nM and a TGI (HCT-116 colon) of 2820 nM. The GI50 (HCT-15 colon) was 1700 nM, the TGI (HCT-15 colon) was 3490 nM and the GI50 (HL-60(TB) leukemia) was 1690 nM. It also gave a TGI (HL-60(TB) leukemia) of 4030 nM, a GI50 (HOP-62 NSCLC) of 3210 nM and a TGI (HOP-62 NSCLC) of 12100 nM. It also gave a GI50 (HOP-92 NSCLC) of 2510 nM, a TGI (HOP-92 NSCLC) of 7890 nM and a GI50 (HS 578T breast) of 3000 nM. It also gave a TGI (HS 578T breast) of 9400 nM, a GI50 (HT29 colon) of 1920 nM and a TGI (HT29 colon) of 4580 nM. The GI50 (IGROV1 ovarian) was 1730 nM, the TGI (IGROV1 ovarian) was 3340 nM and the GI50 (K-562 leukemia) was 506 nM. It also gave a TGI (K-562 leukemia) of 11800 nM, a GI50 (KM12 colon) of 1680 nM and a TGI (KM12 colon) of 3320 nM. For the same molecule, the GI50 (LOX IMVI melanoma) was 1490 nM, the TGI (LOX IMVI melanoma) was 2920 nM and the GI50 (M14 melanoma) was 1720 nM. The TGI (M14 melanoma) was 3540 nM, the GI50 (MALME-3M melanoma) was 2370 nM and the TGI (MALME-3M melanoma) was 6750 nM. For the same molecule, the GI50 (MDA-MB-231 breast) was 2070 nM, the TGI (MDA-MB-231 breast) was 4750 nM and the GI50 (MDA-MB-435) was 1910 nM. The TGI (MDA-MB-435) was 4050 nM, the GI50 (MOLT-4 leukemia) was 2050 nM and the TGI (MOLT-4 leukemia) was 5830 nM. The GI50 (NCI-H226 lung) was 2190 nM, the TGI (NCI-H226 lung) was 5230 nM and the GI50 (NCI-H23 lung) was 2020 nM. For the same molecule, the TGI (NCI-H23 lung) was 4640 nM, the GI50 (NCI-H460 lung) was 2690 nM and the TGI (NCI-H460 lung) was 6650 nM. For the same molecule, the GI50 (NCI-H522 lung) was 1470 nM, the TGI (NCI-H522 lung) was 3020 nM and the GI50 (NCI/ADR-RES ovarian) was 2930 nM. It also gave a TGI (NCI/ADR-RES ovarian) of 10800 nM, a GI50 (OVCAR-3 ovarian) of 1710 nM and a TGI (OVCAR-3 ovarian) of 3130 nM. The GI50 (OVCAR-4 ovarian) was 3300 nM, the TGI (OVCAR-4 ovarian) was 11100 nM and the GI50 (OVCAR-5 ovarian) was 2110 nM. The TGI (OVCAR-5 ovarian) was 4760 nM, the GI50 (OVCAR-8 ovarian) was 2670 nM and the TGI (OVCAR-8 ovarian) was 9520 nM. For the same molecule, the GI50 (PC-3 prostate) was 2150 nM, the TGI (PC-3 prostate) was 5450 nM and the GI50 (RPMI-8226 leukemia) was 236 nM. It also gave a TGI (RPMI-8226 leukemia) of 604 nM, a GI50 (RXF 393 renal) of 1730 nM and a TGI (RXF 393 renal) of 3280 nM. The GI50 (SF-268 CNS) was 2860 nM, the TGI (SF-268 CNS) was 10300 nM and the GI50 (SF-295 CNS) was 6940 nM. For the same molecule, the TGI (SF-295 CNS) was 19800 nM, the GI50 (SF-539 CNS) was 1870 nM and the TGI (SF-539 CNS) was 3730 nM. It also gave a GI50 (SK-MEL-2 melanoma) of 2100 nM, a TGI (SK-MEL-2 melanoma) of 5300 nM and a GI50 (SK-MEL-28 melanoma) of 2020 nM. For the same molecule, the TGI (SK-MEL-28 melanoma) was 4240 nM, the GI50 (SK-MEL-5 melanoma) was 1800 nM and the TGI (SK-MEL-5 melanoma) was 3370 nM. The GI50 (SK-OV-3 ovarian) was 4640 nM, the TGI (SK-OV-3 ovarian) was 15900 nM and the GI50 (SN12C renal) was 1790 nM. The TGI (SN12C renal) was 3470 nM, the GI50 (SNB-19 CNS) was 1960 nM and the TGI (SNB-19 CNS) was 3970 nM. It also gave a GI50 (SNB-75 CNS) of 2630 nM, a TGI (SNB-75 CNS) of 14900 nM and a GI50 (SR leukemia) of 278 nM. For the same molecule, the TGI (SR leukemia) was 1180 nM, the GI50 (SW-620 colon) was 521 nM and the TGI (SW-620 colon) was 2080 nM. It also gave a GI50 (T-47D breast) of 2240 nM, a TGI (T-47D breast) of 6300 nM and a GI50 (TK-10 renal) of 2770 nM. The TGI (TK-10 renal) was 9110 nM, the GI50 (U251 CNS) was 1560 nM and the TGI (U251 CNS) was 2900 nM. The GI50 (UACC-257 melanoma) was 2370 nM, the TGI (UACC-257 melanoma) was 6660 nM and the GI50 (UACC-62 melanoma) was 1920 nM. The TGI (UACC-62 melanoma) was 4030 nM, the GI50 (UO-31 renal) was 1510 nM and the TGI (UO-31 renal) was 2930 nM.
